Measurements published in US20020137929A1, “1 - (3-heterocyclylphenyl) isothiourea, -isourea, -guanidine and -amidine herbicidal agents” (Intellectual Property Department, BASF Aktiengesellschaft, priority 1998, published 2002).

What was measured:
ABUTH (Velvetleaf) = experiment: Postemergence herbicidal evaluation; format: in vivo, Abutilon theophrasti; conditions: postemergence
Method in brief: (§1)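 Rate range approx. 0.0156–0.500 kg/ha. Foliar application at 40 psi to ~2-week seedlings; surfactant 0.5% TWEEN 20 in 50/50 acetone/water. Evaluation 4–5 wk post-treatment by 0–9 visual injury score, means of replicate tests.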

GALAP (Galium) = experiment: Postemergence herbicidal evaluation; format: in vivo, Galium aparine; conditions: postemergence
Method in brief: as §1

ECHCG (Barnyardgrass) = experiment: Postemergence herbicidal evaluation; format: in vivo, Echinochloa crus-galli; conditions: postemergence
Method in brief: as §1

SETVI (Foxtail, Green) = experiment: Postemergence herbicidal evaluation; format: in vivo, Setaria viridis; conditions: postemergence
Method in brief: as §1

ORYSAT (Rice, Tebonnet) = experiment: Postemergence herbicidal evaluation; format: in vivo, Oryza sativa, (L.) Tebonnet; conditions: postemergence
Method in brief: as §1

[1] = system: IPOHE (Morningglory, Ivyleaf); experiment: Preemergence herbicidal evaluation; format: in vivo, Ipomoea hederacea; conditions: rated 4-5 weeks after treatment
Method in brief: (§2)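 Sown cups got a single aqueous acetone spray of test compound (roughly 0.0156–0.500 kg/ha) before seedlings emerged. Evaluation, 4–5 weeks on, used a 0–9 visual scale covering plant stand, vigor, size, malformation, chlorosis and general appearance compared with controls.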

[2] = system: TRZAWR (Wheat, Winter, cv Riband); experiment: Preemergence herbicidal evaluation; format: in vivo, Triticum aestivum; conditions: rated 4-5 weeks after treatment
Method in brief: as §2

ZEAMX (Corn, Field) = experiment: Preemergence herbicidal evaluation; format: in vivo, Zea mays; conditions: rated 4-5 weeks after treatment
Method in brief: as §2

[3] = system: ECHORC (Watergrass (Calif.)); experiment: Preemergence weed control under flooded paddy conditions; format: in vivo, Echinochloa oryzoides; conditions: rated 3-4 weeks after treatment
Method in brief: (§3)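 Ratings on a 0-9 visual scale cover stand, vigor, malformation, size, chlorosis and overall appearance relative to a control, taken three to four weeks post-treatment. Application was into flood water over freshly sown silt loam at roughly 0.0313 to 0.500 kg/ha.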

CYPIR (Rice Flatsedge) [4] = experiment: as above; format: in vivo, Cyperus iria; conditions: rated 3-4 weeks after treatment
Method in brief: as §3

MOOVA (Monochoria) = experiment: as above; format: in vivo, Monochoria vaginalis; conditions: rated 3-4 weeks after treatment
Method in brief: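 Visual injury scored 0-9 against control three to four weeks post-treatment, greenhouse-grown. Application: acetone/water (50/50) solutions dosed directly into flood water (1.5-3 cm over silt loam, planted top 0.5 cm), roughly 0.0313 to 0.500 kg/ha active ingredient.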

CYPIR (Rice Flatsedge) [5] = experiment: Postemergence weed control under flooded paddy conditions; format: in vivo, Cyperus iria; conditions: postemergence weeds, 3-4 weeks after treatment
Method in brief: (§4)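 Injury ratings (0–9 scale covering stand, vigor, malformation, size, chlorosis and overall appearance versus control) were made three to four weeks after treatment. Test material, about 0.0313 to 0.500 kg/ha a.i. in 50/50 v/v aqueous/acetone, was added to flood water 1.5 to 3 cm deep over 3 to 5 cm weeds and 1.5 to 2.5 leaf rice.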

CYPSE (Flatsedge) = experiment: as above; format: in vivo, Cyperus serotinus; conditions: postemergence weeds, 3-4 weeks after treatment
Method in brief: as §4

[6] = system: SAGPY (Arrowhead (Pygmaea)); experiment: as above; format: in vivo, Sagittaria pygmaea; conditions: postemergence weeds, 3-4 weeks after treatment
Method in brief: as §4

CCOC(=O)CN1C(=O)C(C)SC1=Nc1cc(-n2c(=O)cc(C(F)(F)F)n(C)c2=O)c(F)cc1Cl (centres unmarked) [Compound 12]
ABUTH herbicidal rating (ABUTH (Velvetleaf); rate 0.0156 kg/ha): 9.0 | ABUTH herbicidal rating (ABUTH (Velvetleaf); rate 0.0313 kg/ha): 9.0 | ABUTH herbicidal rating (ABUTH (Velvetleaf); rate 0.0625 kg/ha): 9.0 | ABUTH herbicidal rating (ABUTH (Velvetleaf); rate 0.1250 kg/ha): 9.0 | GALAP herbicidal rating (GALAP (Galium); rate 0.0156 kg/ha): 3.0 | GALAP herbicidal rating (GALAP (Galium); rate 0.0313 kg/ha): 5.0 | GALAP herbicidal rating (GALAP (Galium); rate 0.0625 kg/ha): 7.0 | GALAP herbicidal rating (GALAP (Galium); rate 0.1250 kg/ha): 8.0 | ECHCG herbicidal rating (ECHCG (Barnyardgrass); rate 0.0156 kg/ha): 0.0 | ECHCG herbicidal rating (ECHCG (Barnyardgrass); rate 0.0313 kg/ha): 1.0 | ECHCG herbicidal rating (ECHCG (Barnyardgrass); rate 0.0625 kg/ha): 4.0 | ECHCG herbicidal rating (ECHCG (Barnyardgrass); rate 0.1250 kg/ha): 9.0 | SETVI herbicidal rating (SETVI (Foxtail, Green); rate 0.0156 kg/ha): 0.0 | SETVI herbicidal rating (SETVI (Foxtail, Green); rate 0.0313 kg/ha): 4.0 | SETVI herbicidal rating (SETVI (Foxtail, Green); rate 0.0625 kg/ha): 9.0 | SETVI herbicidal rating (SETVI (Foxtail, Green); rate 0.1250 kg/ha): 9.0 | ORYSAT herbicidal rating (ORYSAT (Rice, Tebonnet); rate 0.0156 kg/ha): 2.5 | ORYSAT herbicidal rating (ORYSAT (Rice, Tebonnet); rate 0.0313 kg/ha): 3.0 | ORYSAT herbicidal rating (ORYSAT (Rice, Tebonnet); rate 0.0625 kg/ha): 3.0 | ORYSAT herbicidal rating (ORYSAT (Rice, Tebonnet); rate 0.1250 kg/ha): 5.0 | IPOHE preemergence herbicidal rating ([1]; rate 0.0156 kg/ha): 4.5 | IPOHE preemergence herbicidal rating ([1]; rate 0.0313 kg/ha): 9.0 | IPOHE preemergence herbicidal rating ([1]; rate 0.0625 kg/ha): 9.0 | IPOHE preemergence herbicidal rating ([1]; rate 0.1250 kg/ha): 9.0 | IPOHE preemergence herbicidal rating ([1]; rate 0.2500 kg/ha): 9.0 | TRZAWR preemergence herbicidal rating ([2]; rate 0.0156 kg/ha): 0.0 | TRZAWR preemergence herbicidal rating ([2]; rate 0.0313 kg/ha): 1.0 | TRZAWR preemergence herbicidal rating ([2]; rate 0.0625 kg/ha): 5.0 | TRZAWR preemergence herbicidal rating ([2]; rate 0.1250 kg/ha): 8.0 | TRZAWR preemergence herbicidal rating ([2]; rate 0.2500 kg/ha): 8.0 | ZEAMX preemergence herbicidal rating (ZEAMX (Corn, Field); rate 0.0156 kg/ha): 4.0 | ZEAMX preemergence herbicidal rating (ZEAMX (Corn, Field); rate 0.0313 kg/ha): 5.0 | ZEAMX preemergence herbicidal rating (ZEAMX (Corn, Field); rate 0.0625 kg/ha): 5.5 | ZEAMX preemergence herbicidal rating (ZEAMX (Corn, Field); rate 0.1250 kg/ha): 6.5 | ZEAMX preemergence herbicidal rating (ZEAMX (Corn, Field); rate 0.2500 kg/ha): 8.5 | Herbicidal rating ECHORC ([3]; 0.0313 kg/ha): 5.0 | Herbicidal rating ECHORC ([3]; 0.0625 kg/ha): 9.0 | Herbicidal rating ECHORC ([3]; 0.1250 kg/ha): 8.5 | Herbicidal rating ECHORC ([3]; 0.2500 kg/ha): 9.0 | Herbicidal rating CYPIR (CYPIR (Rice Flatsedge) [4]; 0.0313 kg/ha): 0.0 | Herbicidal rating CYPIR (CYPIR (Rice Flatsedge) [4]; 0.0625 kg/ha): 0.0 | Herbicidal rating CYPIR (CYPIR (Rice Flatsedge) [4]; 0.1250 kg/ha): 1.0 | Herbicidal rating CYPIR (CYPIR (Rice Flatsedge) [4]; 0.2500 kg/ha): 0.0 | Herbicidal rating MOOVA (MOOVA (Monochoria); 0.0313 kg/ha): 9.0 | Herbicidal rating MOOVA (MOOVA (Monochoria); 0.0625 kg/ha): 9.0 | Herbicidal rating MOOVA (MOOVA (Monochoria); 0.1250 kg/ha): 9.0 | Herbicidal rating MOOVA (MOOVA (Monochoria); 0.2500 kg/ha): 9.0 | Herbicidal rating CYPIR (CYPIR (Rice Flatsedge) [5]; rate 0.0313 kg/ha): 0.0 | Herbicidal rating CYPIR (CYPIR (Rice Flatsedge) [5]; rate 0.0625 kg/ha): 0.0 | Herbicidal rating CYPIR (CYPIR (Rice Flatsedge) [5]; rate 0.1250 kg/ha): 1.0 | Herbicidal rating CYPIR (CYPIR (Rice Flatsedge) [5]; rate 0.2500 kg/ha): 0.0 | Herbicidal rating CYPSE (CYPSE (Flatsedge); rate 0.0313 kg/ha): 1.0 | Herbicidal rating CYPSE (CYPSE (Flatsedge); rate 0.0625 kg/ha): 3.0 | Herbicidal rating CYPSE (CYPSE (Flatsedge); rate 0.1250 kg/ha): 1.0 | Herbicidal rating CYPSE (CYPSE (Flatsedge); rate 0.2500 kg/ha): 6.0 | Herbicidal rating SAGPY ([6]; rate 0.0313 kg/ha): 0.0 | Herbicidal rating SAGPY ([6]; rate 0.0625 kg/ha): 1.0 | Herbicidal rating SAGPY ([6]; rate 0.1250 kg/ha): 4.0 | Herbicidal rating SAGPY ([6]; rate 0.2500 kg/ha): 0.0
